Structures can show the parent of a compound that is named as a salt. Where two headings read alike, the source gives them in different places.
Experiments:
[1] = target: Pim-2 (Homo sapiens (Human), UniProt Q9P1W9); test: Pim-Mn enzyme assay (HTRF, 384-well), Pim-2; assay type: biochemical; details: read-out: Pim-2-Mn IC50 IP
[2] = target: Pim-1 (Homo sapiens (Human), UniProt P11309); test: Pim-Mn enzyme assay (HTRF, 384-well), Pim-1; assay type: biochemical; details: read-out: Pim-1-Mn IC50 IP
Sequence of Pim-1 (P11309 whole entry): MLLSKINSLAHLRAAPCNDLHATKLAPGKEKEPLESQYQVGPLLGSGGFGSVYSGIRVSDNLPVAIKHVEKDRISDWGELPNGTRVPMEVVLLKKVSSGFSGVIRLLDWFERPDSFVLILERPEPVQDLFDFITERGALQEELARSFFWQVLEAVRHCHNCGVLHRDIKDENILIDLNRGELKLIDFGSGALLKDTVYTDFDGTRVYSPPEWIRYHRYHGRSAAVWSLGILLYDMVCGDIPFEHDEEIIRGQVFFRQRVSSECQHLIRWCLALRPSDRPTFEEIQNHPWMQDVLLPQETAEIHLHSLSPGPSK

[3] = Pim-2 enzyme 0.5 pM, ATP 1.5 μM, BAD (S112) 0.5 μM, HTRF, 22-point curve
[4] = Pim-1 enzyme 5 pM, ATP 1.5 μM, BAD (S112) 0.5 μM, HTRF, 22-point curve

Sequence of Pim-2 (Q9P1W9 whole entry): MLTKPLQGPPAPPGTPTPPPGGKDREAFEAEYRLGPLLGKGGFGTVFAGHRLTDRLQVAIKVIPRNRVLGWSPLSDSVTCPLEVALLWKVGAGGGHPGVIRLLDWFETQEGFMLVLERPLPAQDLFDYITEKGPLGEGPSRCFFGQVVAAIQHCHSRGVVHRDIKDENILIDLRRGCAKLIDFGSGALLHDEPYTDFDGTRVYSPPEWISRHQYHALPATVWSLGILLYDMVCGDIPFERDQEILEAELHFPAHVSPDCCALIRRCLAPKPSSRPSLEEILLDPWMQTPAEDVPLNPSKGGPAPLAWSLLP

Molecule | IC50 [1, 3] | IC50 [2, 4] | IC50 [2] | IC50 [1]
C[C@H]1NC(=O)c2cc(-c3cccc4c(=O)n(C)c(N[C@H]5CCC[C@@H](N)C5)nc34)[nH]c21 (racemic) [Example 506, (rac)-2-(((cis)-3-aminocyclohexyl)amino)-3-methyl-8-((6R)-6-methyl-4-oxo-1,4,5,6-tetrahydropyrrolo[3,4-b]pyrrol-2-yl)-4(3H)-quinazolinone] | 0.1 nM |  |  | 
CCn1c(NC(C)(C)C)nc2c(-c3cc4c([nH]3)[C@@H](C)NC4=O)c(F)ccc2c1=O [Example 512, (R)-2-(tert-Butylamino)-3-ethyl-7-fluoro-8-(6-methyl-4-oxo-1,4,5,6-tetrahydropyrrolo[3,4-b]pyrrol-2-yl)quinazolin-4(3H)-one] | 0.0741 nM | 0.029 nM |  | 
Cc1nc2cccc(-c3cc4c([nH]3)C(C)CNC4=O)c2nc1NC1CC1 (single isomer, unassigned) [Example 160, 2-(3-(cyclopropylamino)-2-methylquinoxalin-5-yl)-7-methyl-6,7-dihydro-1H-pyrrolo[3,2-c]pyridin-4(5H)-one] | 0.5 nM | 1 nM |  | 
Cc1nc2cccc(-c3cc4c([nH]3)CCNC4=O)c2nc1NS(C)(=O)=O [Example 240, N-(3-methyl-8-(4-oxo-4,5,6,7-tetrahydro-1H-pyrrolo[3,2-c]pyridin-2-yl)quinoxalin-2-yl)methanesulfonamide 2,2,2-trifluoroacetate] |  |  | 87.5 nM | 9.6 nM
Cc1nc2cccc(-c3cc4c([nH]3)[C@@H](C)NC4=O)c2nc1N[C@H]1CCC[C@@H](NCC(F)(F)F)C1 [Example 487, (6R)-6-methyl-2-(2-methyl-3-(((1S,3R)-3-((2,2,2-trifluoroethyl)amino)cyclohexyl)amino)-5-quinoxalinyl)-5,6-dihydropyrrolo[3,4-b]pyrrol-4(1H)-one] |  | 0.501 nM |  | 
Cc1nc2cccc(-c3cc4c([nH]3)C[C@H](C)NC4=O)c2nc1NC(C)(C)C [Example 288, (6S)-2-(3-(tert-butylamino)-2-methyl-5-quinoxalinyl)-6-methyl-1,5,6,7-tetrahydro-4H-pyrrolo[3,2-c]pyridin-4-one] | 3.96 nM | 5.85 nM |  | 
CC#CCC1CNC(=O)c2cc(-c3cccc4nc(C)c(NC(C)(C)C)nc34)[nH]c21 (racemic) [Example 278, rac-2-(3-(tert-butylamino)-2-methyl-5-quinoxalinyl)-7-(2-butyn-1-yl)-1,5,6,7-tetrahydro-4H-pyrrolo[3,2-c]pyridin-4-one] | 10.5 nM | 3.1 nM |  | 
Cc1nc2cccc(-c3cc4c([nH]3)CCNC4=O)c2nc1NC(C)C(F)(F)F (stereo in doubt) [Example 256, (R)-2-(2-methyl-3-((1,1,1-trifluoropropan-2-yl)amino)quinoxalin-5-yl)-6,7-dihydro-1H-pyrrolo[3,2-c]pyridin-4(5H)-one] | 4.32 nM | 4.97 nM |  | 
C[C@H]1NC(=O)c2cc(-c3cccc4c(=O)n(C)c(N[C@@H]5CCC[C@H](NC(=O)OC(C)(C)C)C5)nc34)[nH]c21 (racemic) [Example 509, (rac)-tert-butyl ((cis)-3-((3-methyl-8-((R)-6-methyl-4-oxo-1,4,5,6-tetrahydropyrrolo[3,4-b]pyrrol-2-yl)-4-oxo-3,4-dihydroquinazolin-2-yl)amino)cyclohexyl)carbamate] | 15 nM | 14 nM |  | 
(R)-2-(3-(cyclopropylamino)-6-fluoro-2-methylquinoxalin-5-yl)-6-methyl-5,6-dihydropyrrolo[3,4-b]pyrrol-4(1H)-one [Example 284] |  | 1.2 nM |  | 
Cc1nc2cccc(-c3cc4c([nH]3)CCNC4=O)c2nc1N[C@H]1C[C@H](NC(=O)OC(C)(C)C)C1 [Example 436, tert-butyl ((1r,3s)-3-((3-methyl-8-(4-oxo-4,5,6,7-tetrahydro-1H-pyrrolo[3,2-c]pyridin-2-yl)quinoxalin-2-yl)amino)cyclobutyl)carbamate] | 8.2 nM | 4.1 nM |  | 
CC(=O)N1CCC[C@H](Nc2nc3c(-c4cc5c([nH]4)CCNC5=O)cccc3nc2C)C1 [Example 242, 2-(3-(((3S)-1-acetyl-3-piperidinyl)amino)-2-methyl-5-quinoxalinyl)-1,5,6,7-tetrahydro-4H-pyrrolo[3,2-c]pyridin-4-one] | 137 nM | 129 nM |  | 
C[C@H]1NC(=O)c2cc(-c3cccc4c(N)nc(NC(C)(C)C)nc34)[nH]c21 [Example 484, (6R)-2-(4-amino-2-(tert-butylamino)-8-quinazolinyl)-6-methyl-5,6-dihydropyrrolo[3,4-b]pyrrol-4(1H)-one] | 7.66 nM | 3.98 nM |  | 
Cc1nc2cccc(-c3[nH]c4c(c3Cl)C(=O)N[C@@H]4C)c2nc1NC1(C)CC1 [Example 454, (R)-3-chloro-6-methyl-2-(2-methyl-3-((1-methylcyclopropyl)amino)quinoxalin-5-yl)-5,6-dihydropyrrolo[3,4-b]pyrrol-4(1H)-one] | 0.599 nM | 0.255 nM |  | 
Cc1nc2cccc(-c3cc4c([nH]3)CCNC4=O)c2nc1N[C@H]1C[C@@H](N(CCF)CCF)C1 [Example 476, 2-(3-(((1 s,3s)-3-(bis(2-fluoroethyl)amino)cyclobutyl)amino)-2-methylquinoxalin-5-yl)-6,7-dihydro-1H-pyrrolo[3,2-c]pyridin-4(5H)-one] | 12 nM | 2 nM |  | 
C[C@H]1NC(=O)c2cc(-c3c(F)ccc4c(=O)n(C5CC5)c(NC5(C)CCC5)nc34)[nH]c21 [Example 498, 3-Cyclopropyl-7-fluoro-2-((1-methylcyclobutyl)amino)-8-((6R)-6-methyl-4-oxo-1,4,5,6-tetrahydropyrrolo[3,4-b]pyrrol-2-yl)-4(3H)-quinazolinone] |  | 0.07 nM |  | 
COC(=O)C(C)(C)Nc1nc2c(-c3cc4c([nH]3)CCNC4=O)cccc2nc1C [Example 57, Methyl 2-methyl-N-(3-methyl-8-(4-oxo-4,5,6,7-tetrahydro-1H-pyrrolo[3,2-c]pyridin-2-yl)-2-quinoxalinyl)alaninate] | 54.3 nM | 24.2 nM |  | 
Cc1nc2cccc(-c3cc4c([nH]3)CCNC4=O)c2nc1NC(C)(C)C(F)(F)F [Example 254, 2-(2-methyl-3-((1,1,1-trifluoro-2-methylpropan-2-yl)amino)quinoxalin-5-yl)-6,7-dihydro-1H-pyrrolo[3,2-c]pyridin-4(5H)-one] | 2.24 nM | 2.67 nM |  | 
CC(C)Nc1nc2c(-c3cc4c([nH]3)[C@@H](C)NC4=O)c(F)ccc2c(=O)n1C1CC1 [Example 490, (R)-3-cyclopropyl-7-fluoro-2-(isopropylamino)-8-(6-methyl-4-oxo-1,4,5,6-tetrahydropyrrolo[3,4-b]pyrrol-2-yl)quinazolin-4(3H)-one] | 0.2 nM | 0.1 nM |  | 
Cn1c(NC(C)(C)C)nc2c(-c3cc4c([nH]3)[C@@H](CCN)NC4=O)cccc2c1=O [Example 504, (R)-8-(6-(2-aminoethyl)-4-oxo-1,4,5,6-tetrahydropyrrolo[3,4-b]pyrrol-2-yl)-2-(tert-butylamino)-3-methylquinazolin-4(3H)-one] | 0.02 nM | 0.04 nM |  | 
Cc1nc2cccc(-c3cc4c([nH]3)CCNC4=O)c2nc1N[C@H]1C[C@H](N)C1 [Example 437, 2-(3-(((1r,3r)-3-aminocyclobutyl)amino)-2-methylquinoxalin-5-yl)-6,7-dihydro-1H-pyrrolo[3,2-c]pyridin-4(5H)-one hydrochloride] |  | 0.5 nM |  | 
